Data from ChEMBL document CHEMBL2062447, “The cephalostatins. 22. synthesis of bis-steroidal pyrazine pyrones (1)” (2012).

What follows are molecules tested on P388 (assay: Growth inhibition of mouse P388 cells). Conditions: read-out: ED50 (the source's name).
Format: functional
Work on `C[C@]12Cc3nc4c(nc3C[C@@H]1CC[C@@H]1[C@@H]2[C@@H](O)C[C@]2(C)/C(=C/[C@@H]3CC(=O)C=CO3)CC[C@@H]12)C[C@@]1(C)[C@@H](CC[C@@H]2[C@@H]1[C@@H](O)C[C@]1(C)/C(=C/[C@H]3CC(=O)C=CO3)CC[C@@H]21)C4` yielded an EC50 of 25 µM. Molecule `CC(=O)O[C@H]1CC[C@H]2[C@@H]3CC[C@H]4Cc5nc6c(nc5C[C@]4(C)[C@H]3CC[C@]12C)C[C@@H]1CC[C@@H]2[C@H](CC[C@]3(C)[C@@H](OC(C)=O)CC[C@@H]23)[C@@]1(C)C6` has an EC50 of 91 µM. `C[C@@H]1[C@]2(O[C@H]3C=C4[C@@H]5CC[C@H]6Cc7nc8c(nc7C[C@]6(C)[C@H]5C[C@@H](O)[C@]4(C)[C@]31O)C[C@@H]1CC[C@H]3C4=C[C@@H]5O[C@]6(O[C@](C)(CO)C[C@H]6O)[C@@H](C)[C@]5(O)[C@@]4(C)[C@H](O)C[C@@H]3[C@@]1(C)C8)O[C@](C)(CO)C[C@H]2O` [CEPHALOSTATIN 12] gave an EC50 of 0.076 µM. Work on `C[C@]12Cc3nc4c(nc3C[C@@H]1CC[C@@H]1[C@@H]2CC[C@]2(C)C(=O)CC[C@@H]12)C[C@@]1(C)[C@@H](CC[C@@H]2[C@@H]1CC[C@]1(C)C(=O)CC[C@@H]21)C4` yielded an EC50 of 120 µM. With `C[C@@H]1[C@]2(O[C@H]3C=C4[C@@H]5CC[C@H]6Cc7nc8c(nc7C[C@]6(C)[C@H]5C[C@@H](O)[C@]4(C)[C@]31O)C[C@@H]1CC[C@H]3C4=CC[C@@H]5[C@H](C)[C@@]6(OC[C@]45C(=O)C[C@@H]3[C@@]1(C)C8)OC(C)(C)C[C@H]6O)O[C@](C)(CO)C[C@H]2O` [CEPHALOSTATIN 1] the EC50 was 0.001 µM. `C[C@]12Cc3nc4c(nc3C[C@@H]1CC[C@H]1[C@H]3CC=C(c5ccc(=O)oc5)[C@@]3(C)CC[C@@H]12)C[C@@]1(C)[C@@H](CC[C@H]2[C@H]3CC=C(c5ccc(=O)oc5)[C@@]3(C)CC[C@@H]21)C4` was tested, and the EC50 was 57 µM. `C[C@]12Cc3nc4c(nc3C[C@@H]1CC[C@@H]1[C@@H]2CC[C@]2(C)C(OS(=O)(=O)C(F)(F)F)=CC[C@@H]12)C[C@@]1(C)[C@@H](CC[C@@H]2[C@@H]1CC[C@]1(C)C(OS(=O)(=O)C(F)(F)F)=CC[C@@H]21)C4` gave an EC50 of 42 µM.
